Patent US20140154180A1, “Pharmacophores for Amyloid Fibers Involved in Alzheimer's Disease” (The Regents of the University of California, priority 2011, published 2014)
Entries after “also recorded” stand apart in the source; their conditions may differ.

Tests used:
[1] = tested on: Aβ toxicity to Hela cells; assay: MTT cell viability assay, rescue from Abeta toxicity, Hela cells; format: cell-based; conditions: Table 7; scaled cell survival rate, buffer-treated cell 100%, Abeta-treated cell 0%; Abeta 0.5 μM; 12 h incubation
Description: (§1) We tested candidate compounds by the MTT-based cell proliferation/viability assay, as described on the ATCC web site. Briefly, the ATCC MTT Cell Proliferation Assay quantitates the reduction of the yellow tetrazolium salt (MTT) in response to an external factor, such as treatment with a compound of the present invention, as a measure of a cell population's response to the external factor. The assay measures the cell proliferation rate and conversely, when metabolic events lead to apoptosis or necrosis, the reduction in cell viability. In our tests, Hela and PC12 cell lines were used to assess the toxic effect of Abeta protein. Abeta at 0.5 μM was a positive control. The small molecule inhibitors were added to samples with different concentrations (such as 2.5 μM). After 12 h incubation at room temperature, the absorbance of reduced MIT was measured at 570 nm. Each of the experiments was repeated 3 times with 4 replicates per sample per concentration. Our MTT cell viability assay quantified the percentage of survival cells upon the treatment of the mixture of Abeta and compound inhibitors. The rescuing percentage of each compound was calculated by normalizing the survival percentage using the buffer-treated cell as 100% viability and Abeta-treated cell as 0% viability.

Aβ fibrillation = Aβ fibrillation (Homo sapiens, UniProt P05067); assay: Electron microscopy (EM) of Aβ with BAF compounds; conditions: Aβ with compound right before adding to the cell medium
[2] = tested on: Aβ toxicity to PC12 cells; assay: MTT cell viability assay, rescue from Abeta toxicity, PC12 cells; format: cell-based; conditions: Table 7; scaled cell survival rate, buffer-treated cell 100%, Abeta-treated cell 0%; Abeta 0.5 μM; 12 h incubation
Description: as §1

[3] = biological target: T1, KLVFFA (SEQ ID NO: 1) fibers (Homo sapiens, UniProt P05067); assay: 1H NMR titration with KLVFFA fibers; format: binding; conditions: compound 100 μM, increasing KLVFFA fiber concentrations, 283 K; read-out: apparent dissociation constant (Kd)
T1 construct: host or cells: chemically synthesized peptide
Experimental: As a validation of our computational approach, we used nuclear magnetic resonance (NMR) to characterize the interactions between our BAF compounds and KLVFFA (SEQ ID NO: 1) and Aβ fibers.
NMR samples contained 550 μL of designed compounds were added from 1 mM stocks in H2O to a final concentration of 100 μM. Fibrillar KLVFFA (SEQ ID NO: 1) and Abeta were added at the indicated concentrations. 500 MHz ^1H NMR spectra were collected on a Bruker DRX500 at 283 K. H2O resonance was suppressed through presaturation. Spectra were processed with XWINNMR 3.6.

[4] = biological target: T2, VQIVYK (SEQ ID NO: 2) segment from the tau protein (Homo sapiens, UniProt P10636); assay: LC-MSMS analysis of co-crystals, molar ratio, VQIVYK
T2 construct: host or cells: chemically synthesized peptide
Description: Liquid chromatography tandem mass spectrometry (LC-MSMS) was used to measure the molar ratios of the peptide segments and the small molecules within the crystals. Authentic samples of the peptides and each of the small molecules were used to prepare standard response curves. Crystals from each of the four mixtures of peptides and small compounds were individually picked (using a sharpened glass capillary) and re-dissolved in 5%-10% acetonitrile. The samples were divided into two aliquots, one for the peptide analyses and the other for the small molecule analyses, and the amount of each component in the samples was interpolated using the standard curves.
Peptide standards (dry powder of VQIVYK (SEQ ID NO: 2) and KLVFFA (SEQ ID NO: 1)) were dissolved in water and prepared in concentrations ranging from 0.05 μM to 0.01 mM in 0.1% TFA. […] Data were collected in the positive ion multiple reaction monitoring (MRM) mode in which the intensity of specific parent→fragment ion transitions were recorded (VQIVYK (SEQ ID NO: 2), m/z 749.5→341.3, 749.5→409.4, 749.5→440.3, 749.5→522.5; KLVFFA (SEQ ID NO: 1), 724.4→84, 724.4→488.3, 362.7→84, 362.7→120.1). […]

[5] = tested on: Aβ toxicity to Hela and PC12 cell lines; assay: MTT cell viability assay, Abeta toxicity, cell line not given; format: cell-based; conditions: FIG. 17B
Description: as §1

Sequence of Aβ fibrillation (P05067 672-713): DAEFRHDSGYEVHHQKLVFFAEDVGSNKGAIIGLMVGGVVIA

SMILES | Rescuing Percentage Hela [1] [%] | inhibition of Aβ fibrillation (EM) (Aβ fibrillation) | Rescuing Percentage PC12 [2] [%] | Kd [3] [µM] | VQIVYK segments for each small molecule [4] | dose dependence of reduction of Aβ cytotoxicity [5]
O=C1OC2(c3ccccc31)c1cc(Br)c(O)c(Br)c1Oc1c2cc(Br)c(O)c1Br [BAF1] | 41.3 | do not inhibit Aβ fibrillation | 44.3 | ~12 | – | –
COc1cc(/C=C/C(=O)CC(=O)/C=C/c2ccc(O)c(OC)c2)ccc1O [curcumin, Curcumin] | – | – | – | – | ~100 | –
CC(=C(C#N)C#N)c1ccc2cc(N(C)C)ccc2c1 [DDNP, 1,1-Dicyano-2-[6-(dimethylamino)naphthalen-2-yl]propene] | – | – | – | – | ~400 | –
Cc1ccc(O)c(N=Nc2c(O)cc(S(=O)(=O)O)c3ccccc23)c1 [BAF8] | 27.1 | do not inhibit Aβ fibrillation | 25.1 | ~24 | – | –
O=c1c(O)c(-c2cc(O)c(O)c(O)c2)oc2cc(O)cc(O)c12 [BAF26] | 51.4 | – | 85.5 | – | – | –
O=S(=O)(O)c1cc(S(=O)(=O)O)c2c(/N=N/c3ccccc3)c(O)ccc2c1 [Orange-G, reference compound] | – | – | – | ~43 | – | –
CCCN1CCc2cc(O)cc3c2C1Cc1ccc(O)c(O)c1-3 (centres unmarked) [BAF31] | 83.0 | do not inhibit Aβ fibrillation | 92.6 | – | – | reduce Aβ cytotoxicity in a dose dependent manner; also recorded: reduce Aβ cyto-toxicity in a dose dependent manner
